In US12011444B2, “N-substituted indole derivatives as PGE2 receptor modulators” (Idorsia Pharmaceuticals Ltd, priority 2015, dated 2024) one finds IC50 data, which are given here for 13 compounds.

In assay [1] the target is PTGER2 (EP2) (Homo sapiens (Human), UniProt P43116). As to the kind of experiment: hEP2 b-arrestin assay (PathHunter HEK 293 PTGER2 b-arrestin cells). Type of assay: cell-based. An outline of the steps:
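HEK293 cells expressing ProLink-tagged EP2 and EA-fused β-arrestin 2 (enzyme fragment complementation) were seeded 24 h, pre-incubated with compound 15 min at 37 °C, then stimulated with 5 μM PGE2 (final) for 120 min.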

The target in assay [2] is PTRGER4 (EP4) (Homo sapiens (Human), UniProt P35408). As to the kind of experiment: hEP4 b-arrestin assay (PathHunter HEK 293 PTGER4 b-arrestin cells). Type of assay: cell-based. An outline of the steps: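 Stably transfected HEK293 cells carrying EP4–ProLink and β-arrestin 2–EA (β-gal fragment complementation), pre-incubated with compound 15 min at 37 °C, then stimulated with PGE2 (20 nM final) for 120 min at 37 °C. Chemiluminescence read after 1 h detection reagent at room temperature; activity per concentration expressed as percent of DMSO control.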

The mark [3] stands for this setting: antagonistic activity on hEP2, mean where measured multiple times.
Setting [4] is: antagonistic activity on hEP4, mean where measured multiple times.
The mark [5] stands for this setting: hEP2 b-arrestin assay (values without asterisk).
Setting [6] is: hEP4 b-arrestin assay (values without asterisk).

Sequence of PTGER2 (EP2) (P43116 whole entry, the tested form may be a part): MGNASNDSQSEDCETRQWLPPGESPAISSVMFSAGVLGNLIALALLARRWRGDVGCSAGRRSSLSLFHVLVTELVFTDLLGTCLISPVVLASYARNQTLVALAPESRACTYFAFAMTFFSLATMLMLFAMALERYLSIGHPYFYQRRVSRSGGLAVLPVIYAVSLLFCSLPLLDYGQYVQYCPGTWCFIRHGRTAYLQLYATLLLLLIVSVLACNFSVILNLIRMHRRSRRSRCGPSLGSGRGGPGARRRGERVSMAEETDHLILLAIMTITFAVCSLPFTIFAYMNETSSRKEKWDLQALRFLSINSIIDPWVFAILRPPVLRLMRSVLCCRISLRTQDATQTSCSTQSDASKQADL
Sequence of PTRGER4 (EP4) (P35408 whole entry, looked up, the tested form may be a part): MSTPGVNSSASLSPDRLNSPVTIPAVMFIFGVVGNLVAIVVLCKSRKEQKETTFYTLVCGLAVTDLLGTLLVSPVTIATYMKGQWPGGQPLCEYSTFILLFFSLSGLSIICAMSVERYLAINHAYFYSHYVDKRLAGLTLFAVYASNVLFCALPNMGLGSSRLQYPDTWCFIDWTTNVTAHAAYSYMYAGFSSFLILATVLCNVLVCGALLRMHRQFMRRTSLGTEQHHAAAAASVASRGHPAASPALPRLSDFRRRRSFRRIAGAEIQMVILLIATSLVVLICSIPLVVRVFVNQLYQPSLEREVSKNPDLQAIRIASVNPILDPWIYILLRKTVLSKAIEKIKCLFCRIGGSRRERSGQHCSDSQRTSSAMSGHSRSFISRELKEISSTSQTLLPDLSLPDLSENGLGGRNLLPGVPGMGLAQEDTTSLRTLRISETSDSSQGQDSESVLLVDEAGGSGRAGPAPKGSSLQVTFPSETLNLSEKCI

A word on the IC50: it is the point on the concentration scale where inhibition reaches its midpoint. With `Cc1nnc(-c2ccc(-c3cc(NCCn4c(C)cc5c(C)ccc(F)c54)ncn3)cc2F)o1` [compound 306], the figures for the IC50 in assay [1] (setting [3]) and in assay [2] (setting [4]) were 408 nM and 207 nM, respectively.

Take `COc1ccc(F)c2c1cc(C#N)n2CCNc1cc(-c2ccc3[nH]ncc3c2)ncn1` [Example 977, 7-Fluoro-1-{2-[6-(1H-indazol-5-yl)-pyrimidin-4-ylamino]-ethyl}-4-methoxy-1H-indole-2-carbonitrile]: the IC50 in assay [1] (setting [5]) is 5 nM; in assay [2] (setting [6]), 6 nM.

Turning to `COc1cc(F)cc2c1cc(C)n2CCNc1cc(-c2ccc(-c3noc(=O)[nH]3)cc2)ncn1` [compound 312, 3-(4-{6-[2-(6-Fluoro-4-methoxy-2-methyl-indol-1-yl)-ethylamino]-pyrimidin-4-yl}-phenyl)-4H-[1,2,4]oxadiazol-5-one], the IC50 was determined as 44 nM in assay [1] (setting [3]) and 85 nM in assay [2] (setting [4]).

With `Cc1cc2c(Cl)ccc(Cl)c2n1CCNc1cc(-c2ccc3[nH]c(C(=O)O)cc3c2)ncn1` [compound 198], the concentration for half-maximal inhibition (IC50) was 96 nM in assay [1] (setting [3]) and 299 nM in assay [2] (setting [4]).

With `CCSc1cc(-c2cc(NCCn3c(C#N)cc4c(OC)cccc43)ncn2)ccc1C(=O)O` [Example 952, 4-{6-[2-(2-Cyano-4-methoxy-indol-1-yl)-ethylamino]-pyrimidin-4-yl}-2-ethylsulfanyl-benzoic acid], the IC50 stood at 5 nM in assay [1] (setting [5]) and 21 nM in assay [2] (setting [6]).

Take `COc1cc(F)cc2c1cc(C)n2CCNc1cc(-c2ccc(-c3c[nH]cn3)cc2)ncn1` [compound 188, [2-(6-Fluoro-4-methoxy-2-methyl-indol-1-yl)-ethyl]-{6-[4-(1H-imidazol-4-yl)-phenyl]-pyrimidin-4-yl}-amine]: the IC50 in assay [1] (setting [3]) is 17 nM; in assay [2] (setting [4]), 43 nM.

For the compound `COc1cc(F)cc2c1cc(C)n2CCNc1cc(-c2ccc3c(c2)CC(=O)N3)ncn1` [compound 88], the results for the IC50 in assay [1] (setting [3]) and in assay [2] (setting [4]) were 54 nM and 185 nM, respectively.

`N#Cc1cc2c(Cl)cc(Cl)cc2n1CCNc1cc(-c2cc(C(F)(F)F)c(C(=O)O)s2)ncn1` [Example 856, 5-{6-[2-(4,6-Dichloro-2-cyano-indol-1-yl)-ethylamino]-pyrimidin-4-yl}-3-trifluoromethyl-thiophene-2-carboxylic acid]: the IC50 in assay [1] (setting [5]) worked out at 8 nM; in assay [2] (setting [6]), 52 nM.

As for `CCOc1cc(-c2cc(NCCn3c(C)cc4c(OC)ccc(F)c43)ncn2)sc1-c1nnn[nH]1` [Example 1051, {6-[4-Ethoxy-5-(1H-tetrazol-5-yl)-thiophen-2-yl]-pyrimidin-4-yl}-[2-(7-fluoro-4-methoxy-2-methyl-indol-1-yl)-ethyl]-amine], the figures for the IC50 in assay [1] (setting [5]) and in assay [2] (setting [6]) were 2 nM and 4 nM, respectively.

For `COc1cccc2c1cc(C)n2CCNc1cc(-c2ccc(-c3noc(=O)[nH]3)cc2)ncn1` [compound 194, 3-(4-{6-[2-(4-Methoxy-2-methyl-indol-1-yl)-ethylamino]-pyrimidin-4-yl}-phenyl)-4H-[1,2,4]oxadiazol-5-one], the results for the IC50 in assay [1] (setting [3]) and in assay [2] (setting [4]) were 10 nM and 172 nM, respectively.

In the case of `COc1ccc(F)c2c1cc(C)n2CCNc1cc(-c2ccc3[nH]c(=O)[nH]c3c2)ncn1` [compound 74, 5-{6-[2-(7-Fluoro-4-methoxy-2-methyl-indol-1-yl)-ethylamino]-pyrimidin-4-yl}-1,3-dihydro-2H-benzo[d]imidazol-2-one], the IC50 in assay [1] (setting [3]) was 45 nM; in assay [2] (setting [4]) it was 916 nM.

Turning to `Cc1sc(N)nc1-c1ccc(-c2cc(NCCn3c(C)cc4c(C)ccc(F)c43)ncn2)cc1` [compound 298, {6-[4-(2-Amino-5-methyl-thiazol-4-yl)-phenyl]-pyrimidin-4-yl}-[2-(7-fluoro-2,4-dimethyl-indol-1-yl)-ethyl]-amine], the figures for the IC50 in assay [1] (setting [3]) and in assay [2] (setting [4]) were 19 nM and 249 nM, respectively.

`COc1cc(F)cc2c1cc(C)n2CCNc1cc(-c2cc(Cl)c(C(=O)O)c(Cl)c2)ncn1` [compound 291]: the IC50 came out at 41 nM in assay [1] (setting [3]) and 104 nM in assay [2] (setting [4]).
